Square brackets hold non-standard residues; d marks the D form. Peptide text beside a SMILES is read from it. Nle = CCCC[C@H](N)C(=O)O
Key:
MC1-R = target: T1, MC1-R (Mus musculus, UniProt Q01727); experiment: Competitive inhibition of 125I-NDP-alpha-MSH binding, B-16 mouse melanoma cell membranes
T1 construct: B-16 mouse melanoma cells (containing MC1-R); endogenous in cells; host or cells: B-16 mouse melanoma cells (membranes)
Description: (§1) Ac-Nle-Ala-His-D-Phe-Arg-Trp-NH2 is a known receptor-binding sequence for melanotropin receptors. […] A series of metallopeptides based on this sequence were synthesized by inserting a Cys residue after the 2 position and through the n+1 position and complexing the resulting Cys-containing peptide with an Re-oxo metal ion core as described Example 1. The resulting metallopeptides were screened for inhibiting the binding of 125-I-NDP-alpha-MSH radioligand using B-16 mouse melanoma cells for MCR-1 and cloned human MCR-2, -3 and -4 receptor transfected 293 cells.
(§2) The competitive inhibition binding assay was conducted using membranes prepared from hMC3-R, hMC4-R, hMC5-R, and B-16 mouse melanoma cells (containing MC1-R) using 0.4 nM ^125I-NDP-alpha-MSH (New England Nuclear, Boston, Mass., USA) in 50 mM HEPES buffer containing 1 mM MgCl2, 2 mM CaCl2, and 5 mM KCl, at pH 7.2. The assay tube also contained a chosen concentration of the test peptide of this invention, complexed to a rhenium metal ion as indicated, for determining its efficacy in inhibiting the binding of ^125I-NDP-alpha-MSH to its receptor. […] The filter was dried and counted in a gamma counter for remaining radioactivity bound to the membranes. 100% specific binding was defined as the difference in radioactivity (cpm) bound to cell membranes in the absence and presence of 1 μM alpha-MSH. […]

hMC4-R = target: T2, hMC4-R (Homo sapiens, UniProt P32245); experiment: Competitive inhibition of 125I-NDP-alpha-MSH binding, hMC4-R membranes
T2 construct: expressed in transfected cells; host or cells: 293 cells
Description: as §1, §2

uPA receptor = target: T3, uPA receptor (Homo sapiens, UniProt Q03405); experiment: uPA receptor-binding assay using U937 cells and ATF as competitive ligand; details: within the Table 1 series
T3 construct: endogenous in cells; host or cells: U937 cells
T3 sequence (Q03405 23-305): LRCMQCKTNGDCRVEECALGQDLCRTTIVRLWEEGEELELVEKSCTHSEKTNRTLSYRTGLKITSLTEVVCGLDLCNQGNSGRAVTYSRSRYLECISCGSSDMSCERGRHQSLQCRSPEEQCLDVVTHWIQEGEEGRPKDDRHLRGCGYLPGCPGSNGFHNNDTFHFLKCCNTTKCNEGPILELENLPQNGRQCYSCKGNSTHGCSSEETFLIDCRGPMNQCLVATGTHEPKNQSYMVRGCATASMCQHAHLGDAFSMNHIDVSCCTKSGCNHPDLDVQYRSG

T1 sequence (Q01727 whole entry): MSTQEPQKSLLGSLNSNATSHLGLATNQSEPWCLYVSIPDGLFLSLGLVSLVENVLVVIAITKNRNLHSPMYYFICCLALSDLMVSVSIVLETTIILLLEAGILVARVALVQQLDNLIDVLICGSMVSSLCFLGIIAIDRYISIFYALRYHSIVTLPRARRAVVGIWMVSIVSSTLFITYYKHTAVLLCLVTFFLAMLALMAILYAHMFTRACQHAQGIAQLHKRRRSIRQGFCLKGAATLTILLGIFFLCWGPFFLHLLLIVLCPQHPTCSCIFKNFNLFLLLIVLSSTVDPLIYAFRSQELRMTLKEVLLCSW
T2 sequence (P32245 whole entry): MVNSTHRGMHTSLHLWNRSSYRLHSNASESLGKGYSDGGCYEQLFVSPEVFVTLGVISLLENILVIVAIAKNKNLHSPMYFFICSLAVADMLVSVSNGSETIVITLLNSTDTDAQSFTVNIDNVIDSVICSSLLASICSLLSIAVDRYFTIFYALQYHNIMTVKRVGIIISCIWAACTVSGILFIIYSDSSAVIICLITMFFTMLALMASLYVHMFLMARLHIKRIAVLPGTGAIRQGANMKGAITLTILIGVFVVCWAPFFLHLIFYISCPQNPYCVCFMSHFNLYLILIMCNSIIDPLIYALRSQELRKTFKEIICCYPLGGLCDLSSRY

Compound	Ki (MC1-R)	Ki (hMC4-R)	relative potency in uPA receptor binding (uPA receptor)
CCCC[C@H](NC(C)=O)C(=O)N[C@@H](C)C(=O)N[C@@H](Cc1c[nH]cn1)C(=O)N[C@H](Cc1ccccc1)C(=O)N[C@@H](CCCNC(=N)N)C(=O)N[C@@H](Cc1c[nH]c2ccccc12)C(N)=O [Ac-Nle-Ala-His-D-Phe-Arg-Trp-NH2] (Ac-[Nle]AH[dF]RW-NH2)	0.1 µM	2 µM	–
Ac-Val-Ser-Asn-Lys-Tyr-Phe-Ser-Asn-Ile-His-Cys-Trp-NH2 (Ac-VSNKYFSNIHCW-NH2; not fully specified (bridges); printed as Ac-Val-Ser-Asn-Lys-Tyr-Phe-Ser-Asn-Ile-His-Cys-Trp-NH2; also: oxorhenium(V) N3S1 metal chelate (Re=O)) [SEQ ID NO: 3]	–	–	most potent of all these molecules

Source: patent US20050014193A1, “Identification of target-specific folding sites in peptides and proteins” (priority 2003, published 2005)
